# Data published in US6713486B1, “Antiviral 2,4-pyrimidinedione derivatives and process for the preparation thereof” (Korea Research Institute of Chemical Technology, priority 1999, dated 2004).
# Like-named read-outs stand apart in the source and are kept apart here.
# Key:
# HIV-1 = details: for ED50: Effective concentration for the inhibition of the proliferation of HIV-1 by 50%: HIV-1 infected MT-4 cells, MTT; for S.I. Selectivity index (CD50/ED50): CD50/ED50, MT-4 cells
# Description: First, MT-4 cells were suspended in a culture medium at a concentration of 1×10^4 cells/ml and infected with 500 TCID50 (50% cell culture infective dose)/well of HIV-1.
# MT-4 cells = details: mock-infected MT-4 cells, MTT
# Y181C HIV-1 mutant [1] = assay: Antiviral activity against mutant HIV-1 (Y181C) by the MTT method; format: cell-based; details: read-out: EC50: Effective concentration for the inhibition of the proliferation of mutant HIV-1 by 50%; Y181C mutant HIV-1, MTT
# Method: Antiviral activities of the inventive compounds were determined against Y181C which is representative HIV-1 mutant having high resistance against anti-HIV-1 nonnucleosides, e.g., Nevirapine, by the MTT method. MKC-442 was employed as a comparative compound.
# Y181C HIV-1 mutant [2] = details: read-out: EC50: Effective concentration for the inhibition of the proliferation of mutant HIV-1 by 50%; Y181C mutant HIV-1; Reference: J. Med. Chem., 42, 4500 (1999); cited from earlier work
Compound,ED50: Effective concentration for the inhibition of the proliferation of HIV-1 by 50% (HIV-1),CD50: Cytotoxic concentration that causes death of MT-4 cells by 50% (MT-4 cells),EC50 (Y181C HIV-1 mutant [1]),S.I. Selectivity index (CD50/ED50) (HIV-1),EC50 (Y181C HIV-1 mutant [2])
Cc1cc(C)cc(C(=O)c2c(C(C)C)c(=O)[nH]c(=O)n2Cc2cc(C(F)(F)F)cc(C(F)(F)F)c2)c1 [Compound 44],1800 ng/mL,8.17 µg/mL,–,–,–
"Cc1cc(C)cc(C(=O)c2c(C(C)C)c(=O)[nH]c(=O)n2Cc2ccncc2)c1 [Compound 1, 1-(4′-Picolyl)-5-isopropyl-6-(3′,5′-dimethylbenzoyl)-2,4-pyrimidinedione]",2.6 ng/mL,22.6 µg/mL,0.005 to 0.014 µM,–,–
"Cc1cc(C)cc(C(=O)c2c(C(C)C)c(=O)[nH]c(=O)n2Cc2cccnc2)c1 [Compound 2, 1-(3′-Picolyl)-5-isopropyl-6-(3′, 5′-dimethylbenzoyl)-2,4-pyrimidinedione]",3.6 ng/mL,27.2 µg/mL,–,–,–
Cc1cc(C)cc(C(=O)c2c(C(C)C)c(=O)[nH]c(=O)n2Cc2cc(F)cc(F)c2)c1 [Compound 43],3.5 ng/mL,7.16 µg/mL,–,–,–
Cc1cc(Cl)cc(Cn2c(C(=O)c3cc(C)cc(C)c3)c(C(C)C)c(=O)[nH]c2=O)c1 [Compound 40],34.8 ng/mL,7.97 µg/mL,–,–,–
"Cc1cc(Cl)cc(C(=O)c2c(C(C)C)c(=O)[nH]c(=O)n2Cc2c(C)cncc2CO)c1 [Compound 77, 1-(3′-Hydroxymethyl-5′-methyl-4′-picolyl)-5-isopropyl-6-(3′-chloro-5′-methylbenzoyl)-2,4-pyrimidinedione]",11.5 ng/mL,23.51 µg/mL,–,–,–
"CC(=O)OCc1cncc(C)c1Cn1c(C(=O)c2cc(C)cc(C)c2)c(C(C)C)c(=O)[nH]c1=O [Compound 73, 1-(3′-Acetoxymethyl-5′-methyl-4′-picolyl)-5-isopropyl-6-(3′,5′-dimethylbenzoyl)-2,4-pyrimidinedione]",6.7 ng/mL,39.65 µg/mL,–,–,–
"CCc1c(Nc2cc(C)cc(C)c2)n(Cc2ccncc2)c(=O)[nH]c1=O [Compound 67, 1-(4′-Picolyl)-5-ethyl-6-(3′, 5′-dimethylphenylamino)-2,4-pyrimidinedione]",420 ng/mL,54.5 µg/mL,–,–,–
"Cc1cc(C)cc(C(=O)c2c(C(C)C)c(=O)[nH]c(=O)n2Cc2c(C)cncc2CO)c1 [Compound 76, 1-(3′-Hydroxymethyl-5′-methyl-4′-picolyl)-5-isopropyl-6-(3′, 5′-dimethylbenzoyl)-2,4-pyrimidinedione]",8.4 ng/mL,38.39 µg/mL,–,–,–
"CC(=O)OCc1cnccc1Cn1c(C(=O)c2cc(C)cc(C)c2)c(C(C)C)c(=O)[nH]c1=O [Compound 72, 1-(3′-Acetoxymethyl-4′-picolyl)-5-Isopropyl-6-(3′,5′-dimethylbenzoyl)-2,4-pyrimidinedione]",8.8 ng/mL,38.49 µg/mL,–,–,–
"Cc1cc(C)cc(C(=O)c2c(C(C)C)c(=O)[nH]c(=O)n2Cc2cc[n+]([O-])cc2C)c1 [Compound 69, 1-(N-oxo-3′-Methyl-4′-picolyl)-5-isopropyl-6-(3′, 5′-dimethylbenzoyl)-2,4-pyrimidinedione]",12.5 ng/mL,48.25 µg/mL,–,–,–
"Cc1cc(C)cc(C(=O)c2c(C(C)C)c(=O)[nH]c(=O)n2Cc2ccc(N)cc2)c1 [Compound 81, 1-(4′-Aminobenzyl)-5-isopropyl-6-(3′,5′-dimethylbenzoyl)-2,4-pyrimidinedione]",15 ng/mL,9.63 µg/mL,–,648,–
"Cc1cc(C)cc(C(=O)c2c(C(C)C)c(=O)[nH]c(=O)n2Cc2c(C)c[n+]([O-])cc2C)c1 [Compound 70, 1-(N-oxo-3′, 5-Dimethyl-4′-picolyl)-5-Isopropyl-6-(3′, 5′-dimethylbenzoyl)-2,4-Pyrimidinedione]",5.5 ng/mL,25.84 µg/mL,–,–,–
"Cc1cc(C)cc(Nc2c(C(C)C)c(=O)[nH]c(=O)n2Cc2ccncc2)c1 [Compound 66, 1-(4′-Picolyl)-5-isopropyl-6-(3′, 5′-dimethylphenylamino)-2,4-pyrimidinedione]",80 ng/mL,>100 µg/mL,–,–,–
"Cc1cc(C)cc(C(=O)c2c(C(C)C)c(=O)[nH]c(=O)n2Cc2cc[n+]([O-])cc2)c1 [Compound 68, 1-(N-oxo-4′-Picolyl)-5-isopropyl-6-(3′,5′-dimethylbenzoyl)-2,4-pyrimidinedione]",14.5 ng/mL,56.9 µg/mL,–,–,–
"Cc1cc(Cl)cc(C(=O)c2c(C(C)C)c(=O)[nH]c(=O)n2Cc2ccncc2C(N)=O)c1 [Compound 80, 1-(3′-Carbamoyl-4′-picolyl)-5-isopropyl-6-(3′-chloro-5′-methylbenzoyl)-2,4-pyrimidinedione]",11.1 ng/mL,27.83 µg/mL,–,–,–
"Cc1cc(C)cc(C(=O)c2c(C(C)C)c(=O)[nH]c(=O)n2Cc2ccccn2)c1 [Compound 3, 1-(2′-Picolyl)-5-isopropyl-6-(3′, 5′-dimethylbenzoyl)-2,4-pyrimidinedione]",5.5 ng/mL,26.1 µg/mL,–,–,–
"Cc1cc(C)cc(C(=O)c2c(C(C)C)c(=O)[nH]c(=O)n2Cc2ccncc2CO)c1 [Compound 75, 1-(3′-Hydroxymethyl-4′-picolyl)-5-isopropyl-6-(3′,5′-dimethylbenzoyl)-2,4-pyrimidinedione]",3.1 ng/mL,42.06 µg/mL,–,–,–
"Cc1cc(C)cc(C(=O)c2c(C(C)C)c(=O)[nH]c(=O)n2Cc2ccncc2C(N)=O)c1 [Compound 79, 1-(3′-Carbamoyl-4′-picolyl)-5-isopropyl-6-(3′,5′-dimethylbenzoyl)-2,4-pyrimidinedione]",9.1 ng/mL,>100 µg/mL,–,–,–
"CCOCn1c(Cc2ccccc2)c(C(C)C)c(=O)[nH]c1=O [MKC-442, 6-benzyl-1-ethoxymethyl-5-isopropyluracil, reference compound]",5 ng/mL,–,–,"5,544",13.4 µM
"COC(=O)c1cnccc1Cn1c(C(=O)c2cc(C)cc(C)c2)c(C(C)C)c(=O)[nH]c1=O [Compound 78, 1-(3′-Methoxycarbonyl-4′-picolyl)-5-isopropyl-6-(31,51-dimethylbenzoyl)-2,4-pyrimidinedione]",7.5 ng/mL,40.79 µg/mL,–,–,–
"Cc1cc(Cl)cc(C(=O)c2c(C(C)C)c(=O)[nH]c(=O)n2Cc2c(C)c[n+]([O-])cc2C)c1 [Compound 71, 1-(N-oxo-3′,5′-Dimethyl-4′-picolyl)-5-isopropyl-6-(3′,-chloro-5-methylbenzoyl)-2,4-pyrimidinedione]",8.2 ng/mL,25.44 µg/mL,–,–,–
